# How the values were obtained:
# [1] = test system: BT-474 orthotopic tumors; test: Orthotopic BT-474 tumors in nude mice; assay type: in vivo; conditions: 1 mg/kg every other day for 4 weeks
# Text: FIGS. 25A-25B: show results of administration of FAF formulations when tested for efficacy and safety in nude mice bearing orthotopic tumors of BT-474 cell line. Oral Eve at the same drug dose served as a clinically relevant control.
# Accounting for nearly 40,000 deaths per year, breast cancer is the second deadliest cancer affecting American women. Everolimus (Eve), an analog of Rapamycin is approved to treat HR+/HER2− subtype in combination with exemestane. Currently administered as an oral formulation, Eve suffers from poor physico-chemical properties and toxicity issues like Rapamycin. Novel FAF formulations were tested for efficacy and safety in nude mice bearing orthotopic tumors of BT-474 cell line. Being a HR+ cell line, BT-474 represents nearly 80% of clinically diagnosed breast cancer. Oral Eve at the same drug dose served as a clinically relevant control. […] This is presumably a result of Eve's poor oral bioavailability.
# [2] = test system: HR+/HER2− breast cancer patients; conditions: in combination with exemestane; cited from earlier work
# [3] = Phase transition temperature by optical density (UV-Vis, 350 nm) versus temperature; assay type: physicochemical; conditions: 25 μM; Table 5
# Method: The temperature with the maximum positive slope was defined as the phase transition temperature for each condition. (FIG. 2B) The concentration-temperature phase diagram was determined for both ELPs, and fit to the following equation: Tt=b−m Log10[CELP].
# Both ELPs at different concentrations (5 μM to 100 μM) were subject to a precisely controlled temperature increase from 25 to 75° C. at a rate of 1° C./min. The Tt of ELPs is defined as the temperature at which the first derivative of the optical density with respect to the temperature reaches a maximum.
# [4] = ATRA encapsulation in 4PA, two phase method, HPLC; assay type: physicochemical; conditions: theoretical maximum 4
# Text: FIG. 21: SDS PAGE was used to resolve the purified 4PA fusion protein. To formulate ATRA-loaded 4PA, a two phase encapsulation method was adopted. After removing undissolved drug, HPLC was used to quantify 4PA and ATRA concentrations. Encapsulation ratio, defined as CATRA/C4PA was 2.7, theoretical maximum being 4.
# [5] = test system: MDA-MB-468 cells; test: Split luciferase reporter for cytosolic Rapa; assay type: cell-based
# Text: FIGS. 22A-22B: FAF delays the access of Rapa to the cytosol in a manner consistent with macropinocytosis. FIG. 22A: MDA-VB-468 cells were transfected with a split luciferase reporter that enables the specific detection of Rapa within the cytosol. […] Free Rapa luminescence kinetics were unaffected by amiloride. (Mean±95% CI, n=6).
# To understand drug release, cells were engineered to express a luciferase reporter for cytosolic Rapamycin. […] This is evidence that FAF dominates the intracellular delivery of rapalogues.
# [6] = test system: MDA-MB-468 cell line; test: Cellular uptake of FAF; assay type: cell-based; conditions: concentrations up to 100 μM
# [7] = test system: male NOD mice; test: Lymphocytic infiltration of the lacrimal gland in male NOD mice (Sjögren's syndrome model); assay type: in vivo; conditions: SC 1.0 mg Rapa/kg every other day for 2 weeks
# Method: FIGS. 23A-23C: FAF-Rapa reduces lymphocytic infiltration in the LG of male NOD mice, FIG. 23A: identity, purity and fluorescence of FAF, FAF-Rapa and rhodamine-labeled FAF-Rapa (Rho-FAF-Rapa) were analyzed by Comassie blue staining and fluorescence imaging of SDS-PAGE. FIG. 23B: One LG from each mouse was collected at the conclusion of the study. Sections from 25th, 50th and 75th percentile sections from each LG were quantified by a blinded observer to determine the average percentage area of infiltrate per gland. Glands from 4 treatment groups (n=15) were compared. Inflamed LG show areas of purple nuclear staining, which indicate foci of infiltrating lymphocytes (outlined in blue). Severe lymphocytic infiltration was reduced by FAF-Rapa (middle panel). Scale bar represents 200 μm. FIG. 23C: The percent area of infiltration was calculated using ImageJ (mean±SD). A Kruskal-Wallis non-parametric test was used to compare groups.
# SS is a chronic autoimmune disease that affects about 4 million people in the US. Lymphocytic infiltration and inflammation in the exocrine glands, mainly lacrimal gland (LG) and salivary gland causes severe forms of dry eyes and dry mouth. […] Following this, the LG from all mice were sectioned, stained and lymphocytic infiltration was quantified.
compound,measurement,setting,value
"CO[C@H]1C[C@@H]2CC[C@@H](C)[C@@](O)(O2)C(=O)C(=O)N2CCCC[C@H]2C(=O)O[C@H]([C@H](C)C[C@@H]2CC[C@@H](OCCO)[C@H](OC)C2)CC(=O)[C@H](C)/C=C(\C)[C@@H](O)[C@@H](OC)C(=O)[C@H](C)C[C@H](C)/C=C/C=C/C=C/1C [Eve, Everolimus]",tumor growth compared to PBS treated mice,[1],not statistically significant
same,patients with adverse events necessitating discontinuation of treatment,[2],10 % of patients
same,patients with adverse events necessitating dose reduction,[2],75 % of patients
"4PA: 4 Pin1 domains linked by ELP A24, SEQ ID NO: 15",Transition temperature at 25 μM,[3],52.8 °C
same,"Encapsulation ratio, CATRA/C4PA",[4],2.7
"FAF: FKBP fused to each terminus of ELP A192, SEQ ID NO: 25",Transition temperature at 25 μM,[3],55.1 °C
same,delay of cytosolic access of Rapa versus free drug,[5],about a half-hour
same,effect of amiloride on cytosolic detection of Rapa,[5]; macropinocytosis inhibitor amiloride added,completely suppressed
same,saturation of cellular uptake,[6],no dose-dependent saturation
same,MAT,"SC, Non-compartment",9.6 h
same,elimination half-life,"mouse, in vivo, iv",about 7 hrs
same,MRT,"mouse, in vivo, sc",20.3 h
same,Tmax,"mouse, in vivo, sc",12 h
"CO[C@H]1C[C@@H]2CC[C@@H](C)[C@@](O)(O2)C(=O)C(=O)N2CCCC[C@H]2C(=O)O[C@H]([C@H](C)C[C@@H]2CC[C@@H](O)[C@H](OC)C2)CC(=O)[C@H](C)/C=C(\C)[C@@H](O)[C@@H](OC)C(=O)[C@H](C)C[C@H](C)/C=C/C=C/C=C/1C [Rapa, Rapamycin]",suppression of lymphocytic infiltration compared to vehicle,[7],2.7 fold

# Source: patent US11464867B2, “Multimeric elastin-like polypeptides” (University of Southern California, priority 2018, dated 2022)
